Assay results: US20160030415A1, “TREATMENT AND PROPHYLAXIS OF KIDNEY DISEASES” (priority 2013, published 2016)

Tested on: STZ induced diabetic nephropathy in rats
Experiment: Study 4: HCQ and its combination with Losartan, Telmisartan, Azilsartan and Ramipril, with Glimepiride control
Type: in vivo, Wistar rats
Details: for HDL / TC / TG / GSH / TBARS / Total protein kidney / Creatinine / Total protein / Urea: after 8th week; for Glucose Day1 / Glucose Day14 / Glucose Day28 / Glucose Day42 / Glucose Day56: blood; for GSH / TBARS / Total protein kidney: kidney homogenate; for Creatinine / Total protein / Urea: serum
Description: The methods described in Terri et al, Diabetes Volume, 1997, 46:1612-1618, and Takashi et al, Jpn J. Pharmacol, 1997, 75, 59-64, were followed for inducing Diabetes in rats by injecting Streptozotocin. The Efficacy of the drugs was tested in two different models, one involving comparison with diabetic control (i.e. Diabetic Rats not treated with any medication) and the other involving comparison with the anti-diabetic control group (i.e. Diabetic rats administered Glimepiride) in two separate studies.
Wistar rats of either sex weighing 150-200 g were divided randomly into 28 groups consisting of 6 animals each. Diabetes was induced in rats by single administration of streptozotocin (55 mg/kg/i.p) dissolved in 0.1 M-citrate buffer, pH 4.5. Group 1 (normal control) consisted of normal rats that neither received streptozotocin nor any test drug; Group 2 served as Diabetic control; Group 3 was diabetic rats treated with Hydroxychloroquine (35 mg/kg); Group 4 was diabetic rats treated with Hydroxychloroquine (45 mg/kg) and Group 5 was diabetic rats treated with Hydroxychloroquine (70 mg/kg); Group 6 was diabetic rats treated with Losartan (5.5 mg/kg); Group 7 was diabetic rats treated with Losartan (11 mg/kg); Group 8 was diabetic rats treated with combination of Losartan (5.5 mg/kg) and Hydroxychloroquine (45 mg/kg); Group 9 was diabetic rats treated with combination of Losartan (11 mg/kg) and Hydroxychloroquine (35 mg/kg); Group 10 was diabetic rats treated with Ramipril (0.6 mg/kg); Group 11 was diabetic rats treated with Ramipril (0.3 mg/kg); Group 12 was diabetic rats treated with combination of Ramipril (0.6 mg/kg) and Hydroxychloroquine (35 mg/kg); Group 13 was diabetic rats treated with combination of Ramipril (0.3 mg/kg) and Hydroxychloroquine (45 mg/kg); Group 14 was diabetic rats treated with combination of Ramipril (0.6 mg/kg) and Hydroxychloroquine (45 mg/kg); Group 15 was diabetic rats treated with combination of Ramipril (0.3 mg/kg) and Hydroxychloroquine (35 mg/kg); Group 16 was diabetic rats treated with Telmisartan (9.5 mg/kg); Group 17 was diabetic rats treated with Telmisartan (4.5 mg/kg); Group 18 was diabetic rats treated with combination of Telmisartan (9.5 mg/kg) and Hydroxychloroquine (35 mg/kg); Group 19 was diabetic rats treated with combination of Telmisartan (4.5 mg/kg) and Hydroxychloroquine (45 mg/kg); Group 20 was diabetic rats treated with combination of Telmisartan (9.5 mg/kg) and Hydroxychloroquine (45 mg/kg); Group 21 was diabetic rats treated with combination of Telmisartan (4.5 mg/kg) and Hydroxychloroquine (35 mg/kg); Group 22 was diabetic rats treated with Azilsartan (4.5 mg/kg); Group 23 was diabetic rats treated with Azilsartan (2.5 mg/kg); Group 24 was diabetic rats treated with combination of Azilsartan (4.5 mg/kg) and Hydroxychloroquine (35 mg/kg); Group 25 was diabetic rats treated with combination of Azilsartan (2.5 mg/kg) and Hydroxychloroquine (45 mg/kg); Group 26 was diabetic rats treated with combination of Azilsartan (4.5 mg/kg) and Hydroxychloroquine (45 mg/kg); Group 27 was diabetic rats treated with combination of Azilsartan (2.5 mg/kg) and Hydroxychloroquine (35 mg/kg); Group 28 served as Anti-Diabetic control wherein diabetic rats were treated with antidiabetic drug Glimepiride (GLM) (1 mg/kg).
The study drugs were dissolved/suspended in vehicle and administered orally once a day for eight weeks. The diabetes mellitus induced nephropathy was assessed by estimating the level of serum urea, serum creatinine and total serum protein content after completion of eighth week of study. TBARS, GSH and Total Protein were measured as markers of renal oxidative stress in Kidney Homogenate after completion of eighth week of study. Blood glucose levels were also assessed at weekly interval.

[1] = dose mg/kg: HCQ 35, LT 5.5, RM 0.3, TL 4.5, AZ 2.5, alone or combined with HCQ 35
[2] = dose mg/kg: HCQ 45, LT 11, RM 0.6, TL 9.5, AZ 4.5, alone or combined with HCQ 45

SMILES | HDL [1] [mg/dL] | TC [1] [mg/dL] | TG [1] [mg/dL] | HDL [2] [mg/dL] | TC [2] [mg/dL] | TG [2] [mg/dL] | Glucose Day1 [1] [mg/dL] | Glucose Day1 [2] [mg/dL] | Glucose Day14 [1] [mg/dL] | Glucose Day14 [2] [mg/dL] | Glucose Day28 [1] [mg/dL] | Glucose Day28 [2] [mg/dL] | Glucose Day42 [1] [mg/dL] | Glucose Day42 [2] [mg/dL] | Glucose Day56 [1] [mg/dL] | Glucose Day56 [2] [mg/dL] | GSH [1] [nM/mg] | TBARS [1] [nM/mg] | Total protein kidney [1] [µg/mL] | GSH [2] [nM/mg] | other results
CCOC(=O)[C@H](CCc1ccccc1)N[C@@H](C)C(=O)N1[C@H](C(=O)O)C[C@@H]2CCC[C@@H]21 [Ramipril] | 27.17 ± 1.47 | 138.33 ± 2.94 | 100.17 ± 5 | 27.33 ± 1.63 | 142.17 ± 3.31 | 98.5 ± 4.93 | 281.5 ± 18.2 | 260 ± 17.19 | 216.17 ± 21.48 | 203 ± 14.07 | 174.17 ± 9.06 | 174.33 ± 8.91 | 158.5 ± 9.07 | 157.67 ± 9.18 | 145.33 ± 6.38 | 141.67 ± 5.47 | 1.16 ± 0.62 | 0.67 ± 0.1 | 835.33 ± 22.27 | 1.16 ± 0.59 | TBARS [2]: 0.62 ± 0.15 nM/mg; Total protein kidney [2]: 810 ± 17.12 µg/mL; Creatinine [1]: 3.37 ± 0.32 mg/dL; Total protein [1]: 4.76 ± 0.28 g/dL; Urea [1]: 41.33 ± 1.97 mg/dL; Creatinine [2]: 3.68 ± 0.24 mg/dL; Total protein [2]: 4.77 ± 0.21 g/dL; Urea [2]: 41 ± 1.79 mg/dL
CCCc1nc2c(C)cc(-c3nc4ccccc4n3C)cc2n1Cc1ccc(-c2ccccc2C(=O)O)cc1 [Telmisartan] | 26 ± 1.67 | 138.67 ± 3.93 | 100.33 ± 5.57 | 26.83 ± 1.47 | 141.5 ± 2.88 | 97.67 ± 6.09 | 281.83 ± 12.46 | 275.33 ± 15.45 | 221.83 ± 12.37 | 221.5 ± 16.02 | 181.83 ± 5.04 | 184.33 ± 8.31 | 162 ± 9.21 | 159.83 ± 7.03 | 139 ± 7.85 | 141 ± 7.07 | 0.86 ± 0.06 | 0.65 ± 0.15 | 879.17 ± 29.41 | 0.96 ± 0.11 | TBARS [2]: 0.54 ± 0.14 nM/mg; Total protein kidney [2]: 864.5 ± 25.65 µg/mL; Creatinine [1]: 3.68 ± 0.31 mg/dL; Total protein [1]: 4.93 ± 0.23 g/dL; Urea [1]: 42.67 ± 2.5 mg/dL; Creatinine [2]: 3.91 ± 0.15 mg/dL; Total protein [2]: 4.61 ± 0.18 g/dL; Urea [2]: 41.5 ± 2.35 mg/dL
